Assay results from patent US20070161644A1, “Erastin analogs and uses thereof” (priority 2005, published 2007).

What was measured:
[1] = tested on: BJ-TERT/LT/ST/RAS^V12 cells; assay: Cell death in the presence of a pan-caspase inhibitor; type: cell-based, human; conditions: 50 μM inhibitor
[2] = tested on: BJ-TERT/LT/ST/RAS^V12 cells; assay: Annexin V-FITC apoptosis assay; type: cell-based, human; conditions: camptothecin-treated (1 μM); untreated 6%
Experimental: BJ-TERT/LT/ST/RAS^V12 cells were seeded at 1×10^6 cells per dish in 100 mm dishes and allowed to grow overnight. Cells were treated with erastin (5 or 10 μg/ml) for 6, 8 or 11 h. A camptothecin-treated (0.4 μg/ml) control was maintained, treated at the time of seeding for 20 hours. After the treatment, cells were harvested with trypsin/EDTA and washed once with fresh medium containing serum and then twice with phosphate buffered saline. Cells were resuspended in 1× binding buffer (BD Pharmingen) at a concentration of 1×10^6 cells/ml. 100 μl (1×10^5 cells) was incubated with 5 μl of Annexin V-FITC (BD Pharmingen) and propidium iodiode (BD Pharmingen) for 15 minutes in the dark at room temperature. Then 400 μl of the 1× binding buffer was added and the cells analyzed by flow cytometry (Becton-Dickinson). Data were acquired and analyzed using Cellquest software.

[3] = tested on: cleaved, active caspase 3 in BJ-TERT/LT/ST/RAS^V12 cells; assay: Western blot for active caspase-3; type: cell-based, human; conditions: western blot of lysates
Experimental: BJ-TERT/LT/ST/RAS^V12 cells were seeded prior to the experiment at 5×10^5 cells in 60 mm dishes. The cells were treated with 5 μg/ml erastin (9 μM) for 2, 4, 6, 8 or 10 hours. One dish was maintained for camptothecin treatment (0.4 μg/ml for 24 h) as a positive control. Cells were lysed after each time point in lysis buffer (50 mM HEPES KOH pH 7.4, […], 2 mM EDTA, 0.5% Triton X-100, 1.5 mM Na3VO4, 50 mM NaF, 10 mM sodium pyrophosphate, 10 mM sodium beta-glycerophosphate and protease inhibitor tablet (Roche)). Protein content was quantified using a Biorad protein assay reagent. Equal amounts of protein were resolved on 16% SDS-polyacrylamide gel. The electrophoresed proteins were transblotted onto a PVDF membrane, blocked with 5% milk and incubated with anti-active caspase-3 polyclonal antibody (BD Pharmingen) at 1:1500 dilution overnight at 4° C. The membrane was then incubated in anti-rabbit-HRP (Santa Cruz Biotechnology) at 1:3000 dilution for 1 hour and developed with an enhanced chemiluminescence mixture (NEN life science, Renaissance). To test for equivalent loading in each lane, blots were stripped, blocked, and probed with an anti-eIF-4E antibody (BD Transduction laboratories) at 1:1000 dilution.

[4] = tested on: BJ-TERT/LT/ST/RAS^V12 cells relative to BJ-TERT cells; assay: Alamar Blue viability assay, tumorigenic versus wild type cells; type: cell-based, human
Experimental: Alamar Blue is reduced by mitochondrial enzyme activity in viable cells, causing both colorimetric and fluorescent changes (Nociari et al., 1998, J. Immunol. Methods 13, 157-167). Cells were seeded at a density of 6000 cells (50 μl) per well in a 384-well black, clear bottom plate using a syringe bulk dispenser (Zymark). 10 μl was removed from a two-fold serially diluted erastin plate (6× final concentration) using a 384 fixed cannula head, making the final concentration 20 μg/ml in the well with highest concentration. The plates were incubated for 24 hours. Alamar Blue (Biosource International) was added to each well by diluting 1:10 and incubated for 16 hours at 37° C. Fluorescence intensity was determined using a Packard Fusion platereader with an excitation filter centered on 535 nm and an emission filter centered on 590 nm. Average percentage inhibition at each concentration was calculated. Error bars indicate one standard deviation.
The effect of erastin or erastin B on cell viability was measured using Alamar Blue as described in Example 3 in both tumorigenic BJ-TERT/LT/ST/RAS^V12 (BJELR) cells and wild type BJ-TERT (BJEH) cells. In this example, cell viability was measured at 1, 2, and 3 days after treatment with erastin or erastin B (data for days 1 and 3 not shown). Average percentage inhibition at each concentration was measured.
The effect on cell viability of each of the two isomers of Compound 20 was measured using the Alamar Blue assay described in Example 3 in both tumorigenic BJ-TERT/LT/ST/RAS^V12 cells and wild type BJ-TERT cells. Average percentage inhibition at each concentration was measured.
The effect on cell viability of erastin or Compound 21 was measured using the Alamar Blue assay as described in Example 3 in both tumorigenic BJ-TERT/LT/ST/RAS^V12 cells and in wild type BJ-TERT cells. Average percentage inhibition at each concentration was measured. […]

[5] = tested on: VDAC isoforms, Prohibitin and Ribophorin; assay: Pull-down with immobilized erastin derivatives; type: binding, human; conditions: pull-down from lysates, mitochondrial extract or MonoQ fractions
Experimental: Pull-down assays using immobilized erastin and cell lysates were used in an initial attempt to identify erastin binding partners inside a cell. Initial pull-down experiments were performed with HEK293, BJEH and BJELR whole cell lysates. In those experiments, a methyl-amino derivative of erastin (ERA-A6) was immobilized to Affigel 10 and incubated with lysate under standard pull-down conditions. The beads were washed and either eluted with 100 μM erastin or 0.8% N-lauroylsarcosine (sarkosyl). The eluates were subjected to mass spectrometric analysis.
Since Prohibitin and the VDAC isoforms are all mitochondrial proteins, Applicants enriched potential erastin targets by isolating mitochondria from cell lysates. The isolated mitochondrial extracts were then used in erastin pull-down experiments. In those erastin pull-down experiments with the mitochondrial extracts, Prohibitin, VDAC and Ribophorin were also identified by Western blot. […] The pull-downs were performed with 0.25 mg total protein of the mitochondrial extract. The beads were incubated with the extracts for 1.5 h at 4° C. and then washed several times. Proteins bound to the immobilized Erastin derivatives were eluted with 50 μL of 0.8% N-lauroylsarcosine solution. […]
Ribophorin and Prohibitin are rather acidic proteins with a calculated PI of 5.57 (Prohibitin) and 5.96 (Ribophorin I). […]

For `COC(=O)CC(NC(=O)OC(C)(C)C)C(=O)CF` (centres unmarked) [Boc-Asp(Ome)-fluoromethyl ketone], the “block of compound-induced cell death” value [1] was “partially blocked cell death induced by CPT, but not by erastin”.
With `CC[C@@]1(O)C(=O)OCc2c1cc1n(c2=O)Cc2cc3ccccc3nc2-1` [Camptothecin, reference compound] the “percentage of cells in M1 region (Annexin V staining)” value [2] was 38% and the “activated caspase 3” value [3] was “harbor activated caspase 3”.
`CCOc1ccccc1-n1c(C(C)N2CCN(C(=O)COc3ccc(CN)cc3)CC2)nc2ccccc2c1=O` (centres unmarked) [Compound 19] was tested, and the “lethality in BJ-TERT/LT/ST/RAS^V12 (BJELR) cells compared to BJ-TERT (BJEH) cells” value [4] was “selective lethality” and the “binding of cellular proteins to the immobilized compound” value [5] was “Prohibitin and Ribophorin were identified as binding to the Erastin beads”.
